The values that follow come from US20100168097A1, “Non-Nucleoside Reverse Transcriptase Inhibitors” (priority 2005, published 2010).

Read-outs that look alike come from different tables or passages of the source.

Assay [1] has as its system acute HIV infection of T-lymphoid cells. As to the kind of experiment: Assay for inhibition of HIV replication (spread assay). Format: cell-based. The following applies: Human immunodeficiency virus 1; inhibition of HIV replication in T-lymphoid cells. On the procedure:
An assay for the inhibition of acute HIV infection of T-lymphoid cells (alternatively referred to herein as the “spread assay”) was conducted in accordance with Vacca, J. P. et al., Proc. Natl. Acad. Sci. USA 1994, 91: 4096. […] The compounds of Examples 2-4 and 22 were not tested.

The target of assay [2] is T1, mutant HIV reverse transcriptase, K103N mutation (Human immunodeficiency virus type 1 group M subtype B, UniProt P04585, K690N).
T1 construct: made in house
As to the kind of experiment: Analogous RT inhibition assay, K103N mutant. Type of assay: biochemical. As for the experimental part: (§1) 100 μL reaction mixtures were initiated with a combination of primer-template substrate (10 nM final concentration) and dNTPs (0.6 μM dNTPs, 0.75 μM [^3H]-dGTP). The heterodimeric nucleic acid substrate was generated by annealing the DNA primer pD500 (described in Shaw-Reid et al., J. Biol. Chem., 278: 2777-2780; obtained from Integrated DNA Technologies) to t500, a 500 nucleotide RNA template created by in vitro transcription (see Shaw-Reid et al., J. Biol. Chem., 278: 2777-2780). After 1 hour incubation at 37° C., reactions were quenched by 10 μL streptavidin scintillation proximity assay beads (10 mg/mL, from Amersham Biosciences) in 0.5 M EDTA, pH 8. Microtiter plates were incubated an additional 10 minutes at 37° C. prior to quantification via Topcount (Packard).
(§2) Analogous assays were conducted substituting mutant HIV strains to determine the […] inhibition of compounds of the present invention against mutant HIV reverse transcriptase. In one strain the reverse transcriptase has the Y181C mutation and in the other strain the reverse transcriptase has the K103N mutation. The mutations were generated with the […] site-directed mutagenesis kit (Stratagene).

The target in assay [3] is T2, mutant HIV reverse transcriptase, Y181C mutation (Human immunodeficiency virus type 1 group M subtype B, UniProt P04585, Y768C).
T2 construct: made in house
The assay is described as follows: Analogous RT inhibition assay, Y181C mutant. Type of assay: biochemical. As for the experimental part: as §1, §2

Where [4] appears, read: Y181C mutant RT, tested up to 20 micromolar, read-out: IC50, Y181C mutant assay.
[5] abbreviates: K103N mutant RT, tested up to 20 micromolar, read-out: IC50, K103N mutant assay.

As a reminder, the IC95 is the point of the concentration-response curve where the effect stands at 95%. A word on the IC50: it is the concentration at which inhibition is half-maximal. As to `CCC(CC)S(=O)(=O)c1c(-c2ncc(C)[nH]2)[nH]c2ccc(Cl)cc12` [Example 37, 5-chloro-3-[(pent-3-yl)sulfonyl]-2-(5-methyl-1H-imidazol-2-yl)-1H-indole], the IC95 in assay [1] is < 1000 nM. For the same compound, the IC50 in assay [2] was > 10000 nM; in assay [3] (setting [4]) it was < 1000 nM.
Regarding `Cc1cnc(-c2[nH]c3ccc(Cl)cc3c2S(=O)(=O)C2CCCC2)[nH]1` [Example 35, 5-chloro-3-[(cyclopentyl)sulfonyl]-2-(5-methyl-1H-imidazol-2-yl)-1H-indole], the IC95 in assay [1] was < 1000 nM. Moreover, the IC50 in assay [2] and in assay [3] (setting [4]) was < 1000 nM each time.
As to `CCC(OC)c1cnc(-c2[nH]c3ccc(Br)cc3c2S(=O)(=O)N2CCCC2)[nH]1` (stereo not drawn) [Example 21, 5-bromo-2-[4-(1-methoxypropyl)-1H-imidazol-2-yl]-3-(pyrrolidin-1-ylsulfonyl)-1H-indole], in assay [1], the IC95 was < 1000 nM. Moreover, the IC50 is < 1000 nM in assay [2] (setting [5]) and 1000 to 20000 nM in assay [3].
In the case of `O=S(=O)(c1c(-c2nc([C@H](O)[C@@H](O)[C@@H](O)CO)c[nH]2)[nH]c2ccc(Br)cc12)N1CCCC1` [Example 18, (1S,2R,3S)-1-{2-[5-bromo-3-(pyrrolidin-1-ylsulfonyl)-1H-indol-2-yl}-1H-imidazol-4-yl}butane-1,2,3,4-tetrol], the IC95 in assay [1] is < 1000 nM. Further, the IC50 in assay [2] (setting [5]) was < 1000 nM; in assay [3] it was 1000 to 20000 nM.
Consider `COCc1nc(-c2[nH]c3ccc(Cl)cc3c2S(=O)(=O)c2ccccc2)no1` [Example 1, 5-chloro-2-[5-(methoxymethyl)-1,2,4-oxadiazol-3-yl]-3-(phenylsulfonyl)-1H-indole], for which the IC95 in assay [1] was < 1000 nM. The IC50 in assay [2] and in assay [3] was > 20000 nM each time.
As for `O=S(=O)(c1c(-c2nc(-c3ccc(O)cc3)c[nH]2)[nH]c2ccc(Br)cc12)N1CCCC1` [Example 27, 4-{2-[5-bromo-3-(pyrrolidin-1-ylsulfonyl)-1H-indol-2-yl]-1H-imidazol-4-yl}phenol], in assay [1], the IC95 is < 1000 nM. Moreover, the IC50 in assay [2] (setting [5]) was < 1000 nM; in assay [3] (setting [4]) it was 1000 to 20000 nM.
`O=S(=O)(c1c(-c2nc(-c3ccc(F)cc3F)c[nH]2)[nH]c2ccc(Br)cc12)N1CCCC1` [Example 22, 5-bromo-2-[4-(2,4-difluorophenyl)-1H-imidazol-2-yl]-3-(pyrrolidin-1-ylsulfonyl)-1H-indole]: the IC50 in assay [2] (setting [5]) was < 1000 nM; in assay [3] (setting [4]), > 20000 nM.
As to `O=S(=O)(c1c(-c2nc3ccccc3[nH]2)[nH]c2ccc(Br)cc12)N1CCCC1` [Example 17, 2-[5-bromo-3-(pyrrolidin-1-ylsulfonyl)-1H-indol-2-yl]-1H-benzimidazole], in assay [1], the IC95 was < 1000 nM. The IC50 in assay [2] (setting [5]) and in assay [3] was < 1000 nM throughout.
Regarding `O=S(=O)(c1c(-c2ncc(-c3ccccc3)[nH]2)[nH]c2ccc(Br)cc12)N1CCCC1` [Example 23, 5-bromo-2-(4-phenyl-1H-imidazol-2-yl)-3-(pyrrolidin-1-ylsulfonyl)-1H-indole], the IC95 in assay [1] was < 1000 nM. In addition, the results for the IC50 in assay [2] (setting [5]) and in assay [3] (setting [4]) were < 1000 nM and > 20000 nM, respectively.
As for `O=S(=O)(c1c(-c2nc(-c3ccc(F)c(F)c3)c[nH]2)[nH]c2ccc(Br)cc12)N1CCCC1` [Example 26, 5-bromo-2-[4-(3,4-difluorophenyl)-1H-imidazol-2-yl]-3-(pyrrolidin-1-ylsulfonyl)-1H-indole], in assay [1], the IC95 is < 1000 nM. Further, the IC50 in assay [2] (setting [5]) was < 1000 nM; in assay [3] (setting [4]) it was > 20000 nM.
For the compound `O=S(=O)(c1ccccc1)c1c(-c2nc(-c3ccccn3)cs2)[nH]c2ccc(Cl)cc12` [Example 3, 5-chloro-3-(phenylsulfonyl)-2-(4-pyridin-2-yl-1,3-thiazol-2-yl)-1H-indole], the IC50 in assay [2] (setting [5]) and in assay [3] (setting [4]) was > 20000 nM throughout.
For `O=S(=O)(c1ccccc1)c1c(-c2nc(-c3cccnc3)cs2)[nH]c2ccc(Cl)cc12` [Example 4, 5-chloro-3-(phenylsulfonyl)-2-(4-pyridin-3-yl-1,3-thiazol-2-yl)-1H-indole], the IC50 in assay [2] (setting [5]) and in assay [3] (setting [4]) was > 20000 nM in each case.
